Test results: ChEMBL document CHEMBL1133241, “Phenylacetamides as selective alpha-1A adrenergic receptor antagonists” (Bioorg Med Chem Lett, 2000)

Columns and labels:
[1] = biological target: T1, Alpha-1D adrenergic receptor (Homo sapiens, UniProt P25100); experiment: Inhibition of binding of [125I]HEAT to cloned human alpha-1D adrenergic receptor.
T1 sequence (P25100 whole entry): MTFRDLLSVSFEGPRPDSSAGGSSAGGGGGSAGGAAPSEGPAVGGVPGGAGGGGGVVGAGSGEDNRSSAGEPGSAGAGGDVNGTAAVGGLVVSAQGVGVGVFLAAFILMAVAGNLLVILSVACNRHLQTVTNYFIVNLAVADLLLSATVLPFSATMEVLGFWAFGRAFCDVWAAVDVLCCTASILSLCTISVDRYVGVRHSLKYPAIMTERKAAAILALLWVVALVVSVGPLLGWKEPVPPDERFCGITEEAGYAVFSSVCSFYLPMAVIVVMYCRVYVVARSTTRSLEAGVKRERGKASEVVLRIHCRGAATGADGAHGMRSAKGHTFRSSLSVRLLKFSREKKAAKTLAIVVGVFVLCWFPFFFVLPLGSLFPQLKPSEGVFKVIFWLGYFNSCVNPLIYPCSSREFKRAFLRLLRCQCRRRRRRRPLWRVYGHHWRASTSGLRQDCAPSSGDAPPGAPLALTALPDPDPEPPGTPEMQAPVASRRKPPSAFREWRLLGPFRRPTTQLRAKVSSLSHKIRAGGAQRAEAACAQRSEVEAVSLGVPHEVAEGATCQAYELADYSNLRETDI

[2] = biological target: T2, Alpha-1B adrenergic receptor (Homo sapiens, UniProt P35368); experiment: Inhibition of binding of [125I]HEAT to cloned human alpha-1B adrenergic receptor.
T2 sequence (P35368 whole entry): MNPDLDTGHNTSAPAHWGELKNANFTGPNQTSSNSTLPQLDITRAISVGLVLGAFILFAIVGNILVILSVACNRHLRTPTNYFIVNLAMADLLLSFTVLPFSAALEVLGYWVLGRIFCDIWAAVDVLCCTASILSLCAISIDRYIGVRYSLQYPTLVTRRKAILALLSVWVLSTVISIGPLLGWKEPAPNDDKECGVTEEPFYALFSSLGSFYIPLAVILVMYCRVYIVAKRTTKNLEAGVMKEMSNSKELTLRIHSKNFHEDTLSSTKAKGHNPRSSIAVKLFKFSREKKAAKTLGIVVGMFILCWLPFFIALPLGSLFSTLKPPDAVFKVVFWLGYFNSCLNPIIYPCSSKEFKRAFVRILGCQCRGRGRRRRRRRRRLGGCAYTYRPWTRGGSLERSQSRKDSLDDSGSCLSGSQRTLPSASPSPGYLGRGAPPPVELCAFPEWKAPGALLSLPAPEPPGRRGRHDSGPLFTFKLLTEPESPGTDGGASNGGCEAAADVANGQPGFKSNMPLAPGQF

[3] = biological target: T3, Alpha-1A adrenergic receptor (Homo sapiens, UniProt P35348); experiment: Inhibition of binding of [125I]HEAT to cloned human alpha-1A adrenergic receptor.
T3 sequence (P35348 whole entry): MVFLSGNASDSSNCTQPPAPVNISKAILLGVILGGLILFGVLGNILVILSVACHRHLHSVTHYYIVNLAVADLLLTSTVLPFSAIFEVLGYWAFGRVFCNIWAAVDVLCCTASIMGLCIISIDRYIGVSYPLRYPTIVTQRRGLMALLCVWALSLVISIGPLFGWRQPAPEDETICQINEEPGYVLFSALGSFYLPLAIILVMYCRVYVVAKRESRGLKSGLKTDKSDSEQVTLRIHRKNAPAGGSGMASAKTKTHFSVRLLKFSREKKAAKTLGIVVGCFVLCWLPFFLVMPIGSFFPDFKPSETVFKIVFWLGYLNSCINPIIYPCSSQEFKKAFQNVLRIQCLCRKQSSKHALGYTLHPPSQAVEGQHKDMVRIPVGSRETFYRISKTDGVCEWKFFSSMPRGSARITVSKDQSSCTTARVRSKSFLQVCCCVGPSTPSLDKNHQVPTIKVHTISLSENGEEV

Row | SMILES | Ki [1] | Ki [2] | Ki [3]
1 | COC(=O)C1(c2ccccc2)CCN(CCCNC(=O)C(c2ccc(C)cc2)c2ccc(C)cc2)CC1 | 960 nM | 450 nM | 5.1 nM
2 | Cc1ccccc1C1(C#N)CCN(CCCNC(=O)C(c2ccc(F)c(F)c2)C(C)C)CC1 (single isomer, unassigned; (+)) | 2100 nM | 1400 nM | 2 nM
3 | Cc1ccc(C(C(=O)NCCCN2CCC(C#N)(c3ccccc3C(F)(F)F)CC2)c2ccc(C)cc2)cc1 | 3200 nM | 1900 nM | 22 nM
4 | Cc1ccccc1C1(C#N)CCN(CCCNC(=O)C(c2ccc(F)c(F)c2)C(C)C)CC1 (stereo in doubt; 28) | 1600 nM | 900 nM | 2 nM
5 | COC(=O)C1(c2ccccc2)CCN(CCCNC(=O)Cc2ccc([N+](=O)[O-])cc2)CC1 | 6300 nM | 3300 nM | 75 nM
6 | COc1ccccc1C1(C#N)CCN(CCCNC(=O)C(c2ccc(C)cc2)c2ccc(C)cc2)CC1 | 710 nM | 570 nM | 7.5 nM
7 | COC(=O)C1(c2ccccc2)CCN(CCCNC(=O)Cc2ccc(C)cc2)CC1 | 3400 nM | > 3000 nM | 74 nM
8 | Cc1ccc(C(C(=O)NCCCN2CCC(C#N)(c3ccccc3Cl)CC2)c2ccc(C)cc2)cc1 | 600 nM | 280 nM | 0.99 nM
9 | Cc1ccccc1C1(C#N)CCN(CCCNC(=O)C(c2ccc(F)cc2)C(C)C)CC1 (stereo not given) | 2400 nM | 960 nM | 24 nM
10 | COC(=O)C1(c2ccccc2)CCN(CCCNC(=O)C(C)c2ccc([N+](=O)[O-])cc2)CC1 (stereo not given) | 1700 nM | 1700 nM | 47 nM
11 | Cc1ccc(C(C(=O)NCCCN2CCC(C(N)=O)(c3ccccc3)CC2)c2ccc(C)cc2)cc1 | 3300 nM | 570 nM | 570 nM
12 | Cc1ccc(C(C(=O)NCCCN2CCN(c3ccccc3)CC2)c2ccc(C)cc2)cc1 | 128 nM | 23 nM | 12 nM
13 | N#CC1(c2ccccc2)CCN(CCCNC(=O)C(c2ccccc2)C2CCCCC2)CC1 (racemic) | 2500 nM | 1100 nM | 61 nM
14 | Cc1ccc(C(C(=O)NCCCN2CCC(C#N)(c3ccccc3C)CC2)C(C)C)cc1 (stereo not given) | 1100 nM | 650 nM | 7.4 nM
15 | CC(C)C(C(=O)NCCCN1CCC(C#N)(c2ccccc2)CC1)c1ccccc1 (racemic) | 2900 nM | 1200 nM | 72 nM
16 | Cc1ccc(C(C(=O)NCCCN2CCC(c3ccccc3)CC2)c2ccc(C)cc2)cc1 | 230 nM | 34 nM | 8.8 nM
17 | Cc1ccc(C(C(=O)NCCCN2CCN(c3ccccc3C)CC2)c2ccc(C)cc2)cc1 | 36 nM | 6.6 nM | 1.1 nM
18 | Cc1ccc(C(C(=O)NCCCN2CCC(c3ccccn3)CC2)c2ccc(C)cc2)cc1 | 3600 nM | 670 nM | 27 nM
19 | N#CC1(c2ccccc2)CCN(CCCNC(=O)C(c2ccccc2)C2CCCC2)CC1 (racemic) | 2300 nM | 2000 nM | 50 nM
20 | Cc1ccc(C(C(=O)NCCCN2CCC(C#N)(c3ccccc3C)CC2)c2ccc(C)cc2)cc1 | 1100 nM | 360 nM | 1.3 nM
21 | Cc1ccccc1C1(C#N)CCN(CCCNC(=O)C(c2cccc(F)c2)C(C)C)CC1 (stereo not given) | 2700 nM | 680 nM | 3.4 nM
22 | COC(=O)C1(c2ccccc2)CCN(CCNC(=O)CCc2ccc([N+](=O)[O-])cc2)CC1 | 1500 nM | > 3000 nM | 380 nM
23 | COC(=O)C1(c2ccccc2)CCN(CCCNC(=O)CCc2ccc([N+](=O)[O-])cc2)CC1 | 1300 nM | 910 nM | 240 nM
24 | N#CC1(c2ccccc2)CCN(CCCNC(=O)C(c2ccccc2)c2ccccc2)CC1 | 3300 nM | 840 nM | 28 nM
25 | Cc1ccccc1C1(C#N)CCN(CCCNC(=O)C(c2ccc(F)c(F)c2)C(C)C)CC1 (single isomer, unassigned; (-)) | 2600 nM | 1200 nM | 50 nM
26 | COC(=O)C1(c2ccccc2)CCN(CCCNC(=O)C2=C(C)N=C(C)/C(=C(/O)OC)C2c2ccc([N+](=O)[O-])cc2)CC1 (racemic) | 1100 nM |  | 
27 | Cc1ccc(C(C(=O)NCCCN2CCC(C#N)(c3ccccc3)CC2)c2ccc(C)cc2)cc1 | 1400 nM | > 2000 nM | 7.3 nM
28 | Cc1ccccc1C1(C#N)CCN(CCCNC(=O)C(c2ccc(Cl)cc2)C(C)C)CC1 (stereo not given) | 1300 nM | 870 nM | 6.4 nM
29 | Cc1ccc(C(C(=O)NCCCN2CCC(C#N)(c3ccccn3)CC2)c2ccc(C)cc2)cc1 | > 5000 nM | > 2000 nM | 25 nM
